Laboratory results taken from US20250270173A1, “PYRIDINE DERIVATIVES FOR TREATING PSYCHIATRIC DISORDERS” (GILGAMESH PHARMACEUTICALS, INC., priority 2022, published 2025).
Where “and” joins values, the source holds several entries; their conditions need not be identical. Equal values may be shown once.

What was measured:
[1] = biological target: human 5-HT2C receptor (Homo sapiens (Human), UniProt P28335); assay: FLIPR Ca2+ flux functional assay at 5-HT2C (Eurofins DiscoverX); format: cell-based; conditions: Ca2+ flux, human 5-HT2C, at max concentration
Chain of human 5-HT2C receptor (P28335 whole entry, looked up): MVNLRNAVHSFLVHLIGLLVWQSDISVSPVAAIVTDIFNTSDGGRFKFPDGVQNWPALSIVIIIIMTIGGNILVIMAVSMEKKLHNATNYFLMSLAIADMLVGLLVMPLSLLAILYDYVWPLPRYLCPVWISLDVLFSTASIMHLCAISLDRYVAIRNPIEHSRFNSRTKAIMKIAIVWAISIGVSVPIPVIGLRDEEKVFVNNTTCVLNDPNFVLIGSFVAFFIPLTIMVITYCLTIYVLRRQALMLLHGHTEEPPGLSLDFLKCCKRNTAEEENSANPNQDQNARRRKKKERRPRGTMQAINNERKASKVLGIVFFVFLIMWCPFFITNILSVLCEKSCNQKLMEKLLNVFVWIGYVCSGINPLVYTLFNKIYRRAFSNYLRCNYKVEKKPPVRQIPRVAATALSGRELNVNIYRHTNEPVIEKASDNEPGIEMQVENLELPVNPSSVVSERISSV
Experimental: Functional Assays at 5-HT2C Receptors. […] Probenecid was prepared fresh. Cells were loaded with dye prior to testing and incubated at 37° C. for 30-60 minutes. After dye loading, cells were removed from the incubator and 10 μL HBSS/20 mM Hepes was added. 3× vehicle was included in the assay buffer. Cells were incubated for 30 mins at room temperature in the dark to equilibrate plate temperature. Intermediate dilution of sample stocks was performed to generate 4× sample in assay buffer. Compound agonist activity was measured on a FLIPR Tetra (MDS). Calcium mobilization was monitored for 2 minutes and 10 μL 4× sample in HBSS/20 mM Hepes was added to the cells 5 seconds into the assay.

[2] = biological target: 5-HT2B receptor (Homo sapiens (Human), UniProt P41595); assay: FLIPR Ca2+ flux functional assay at 5-HT2B (HEK293); conditions: for 5-HT2B % Act @ Max Conc.: Ca2+ flux, HEK293, at max concentration
Chain of 5-HT2B receptor (P41595 whole entry, looked up): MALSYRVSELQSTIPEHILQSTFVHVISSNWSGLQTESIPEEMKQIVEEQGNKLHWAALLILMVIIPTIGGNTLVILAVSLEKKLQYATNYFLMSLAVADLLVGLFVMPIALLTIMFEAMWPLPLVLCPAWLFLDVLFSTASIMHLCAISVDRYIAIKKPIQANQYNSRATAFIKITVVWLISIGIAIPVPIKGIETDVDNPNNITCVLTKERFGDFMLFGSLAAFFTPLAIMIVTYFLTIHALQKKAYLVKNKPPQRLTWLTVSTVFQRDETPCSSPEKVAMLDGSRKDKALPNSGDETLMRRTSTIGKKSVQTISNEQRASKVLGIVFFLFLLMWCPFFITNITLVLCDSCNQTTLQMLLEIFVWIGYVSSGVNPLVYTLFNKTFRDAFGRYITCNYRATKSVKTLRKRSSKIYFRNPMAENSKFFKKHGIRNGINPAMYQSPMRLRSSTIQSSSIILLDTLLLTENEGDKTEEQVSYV

[3] = biological target: 5-HT1A receptor (Homo sapiens (Human), UniProt P08908); assay: FLIPR Ca2+ flux functional assay at 5-HT1A (CHO cells); conditions: for 5-HT1A % Act @ Max Conc.: Ca2+ flux, CHO cells, at max concentration
[4] = biological target: 5-HT2A receptor (Homo sapiens (Human), UniProt P28223); assay: FLIPR Ca2+ flux functional assay at 5-HT2A (HEK293); conditions: for 5-HT2A % Act @ Max Conc.: Ca2+ flux, HEK293, at max concentration
[5] = system: C57BL/6 mice; assay: Automated (video tracking) head twitch response (HTR) assay in mice; format: in vivo; conditions: SC
Experimental: Disclosed compounds were tested for their ability to induce a head twitch response (HTR) in mice using an automated video tracking procedure, with the results summarized in Table 5. […] The phenyl Compound 44 was substantially more efficacious at inducing HTR than its pyridine counterpart Compound 29, in agreement with the generally lower maximal efficacy of the disclosed pyridine compounds for signaling through 5-HT2A receptors.
Animals. Adult male C57BL/6 mice aged 8-10 weeks (body weight 20-25 g) were used in these experiments. Animals were housed under controlled temperatures and 12-hour light/dark cycles (lights on between 07:00-19:00 h), with ad libitum food and water. The protocol was approved by the Institutional Animal Care and Use Committee at the study site. This study was carried out in strict accordance with the recommendations in the Guide for the Care and Use of Laboratory Animals of the National Institutes of Health. All efforts were made to minimize suffering.
Drugs and Drug Administration. […] was commercially obtained. Disclosed compounds were synthesized as described above. They were administered subcutaneously (SC) dissolved in saline (or saline acidified with 1-2 molar equivalents HCl to form the salt in situ for freebase compounds) at a volume of 10 mL/kg. Five doses were tested, with N=5-8 animals/group. Doses were calculated on the basis of the freebase, except for DOI, which was calculated based on the HCl salt.
Procedure. Mice were administered one dose of the drug and immediately placed into a small open field for behavioral observation. High-speed video of animals' behavior was captured continuously for 20 min. Video recordings were imported into an image processing software, which detects multiple points of interest on each animal's body, including the left and right ear. HTR events were defined as periodic deviations of ear locations from temporally averaged ear locations. Predefined thresholds for magnitude and frequency of location deviations were used to filter […] events from random head movements. The method was validated by comparing detected events with manual (human) observations and found to have an accuracy >95%. The total number of HTR events counted during the 20-min recording were determined for each animal at each dose.
Statistical Analysis. Analysis was performed using GraphPad Prism 9. Dose-response curves were fit via non-linear regression using the Gaussian 2020 function in Prism in order to determine the ED50 and Emax for each compound.

Row | Compound | 5-HT2C % Act @ Max Conc. [1] | 5-HT2B % Act @ Max Conc. [2] | 5-HT1A % Act @ Max Conc. [3] | 5-HT2A % Act @ Max Conc. [4] | ED50 ([5]; Mus musculus, 20 min, 20 min recording, read-out: ED50) | Emax (HTR counts/20 min) [5] | # HTR/20 min at Most Efficacious Dose ([5]; at most efficacious dose) | Most Efficacious Dose; mg/kg ([5]; dose giving the most HTR) | EC50 [2] | EC50 [3] | EC50 [4]
1 | CCCc1cc(OC)c(CC(N)CC)cc1OC (stereo not drawn) [Compound 40, reference compound] | 93.58% | −0.18% | 96.43% | 84.23% | – | – | – | – | – | – | –
2 | CCCCCCc1cc(OC)c(CCN)nc1OC [Compound 29, 2-(5-hexyl-3,6-dimethoxypyridin-2-yl)ethan-1-amine] | – | 7.78% | – | 69.91% | 7.46 mg/kg | 22.11 HTR counts/20 min | 23 HTR/20 min | (3.2) mg/kg | > 10000 nM | > 100000 nM | 34.6 nM
3 | CCCCCc1cc(OC)c(CC(C)N)cc1OC (stereo not drawn) [Compound 41, reference compound] | 90.1% | 20.0% | 15.0% | 100.2% | – | – | – | – | – | – | –
4 | COc1cc(Br)c(OC)nc1CC(C)N (stereo not drawn) [Compound 6, 1-(5-bromo-3,6-dimethoxypyridin-2-yl)propan-2-amine] | – | 70.54% | 1.66% | 95.6% | – | – | – | – | 170 nM | > 100000 nM | 2.13 nM
5 | CCCCCCc1cc(OC)c(CC(C)N)cc1OC (stereo not drawn) [Compound 42, reference compound] | 99.8% | 39.8% | 30.4% | 119.7% | – | – | – | – | – | – | –
6 | CCCCCc1cc(OC)c(CC(N)CC)cc1OC (stereo not drawn) [Compound 10, 1-(2,5-dimethoxy-4-pentylphenyl)butan-2-amine] | 115% | 0.211% | 33.1% | 72% and 71.5% | – | – | – | – | – | – | –
7 | CCC(N)Cc1nc(OC)c(Br)cc1OC (stereo not drawn) [Compound 3, 1-(5-bromo-3,6-dimethoxypyridin-2-yl)butan-2-amine] | – | – | – | 70.17% | – | – | – | – | – | – | 136 nM
8 | COc1cc(CCN)cc(OC)c1OC [Mescaline, reference compound] | 91.1% | 45.4% | −5.03% | 102% | – | – | – | – | – | – | –
9 | CCc1cc(OC)c(CC(N)CC)nc1OC (stereo not drawn) [Compound 21, 1-(5-ethyl-3,6-dimethoxypyridin-2-yl)butan-2-amine] | – | – | – | 73.61% | – | – | – | – | – | – | 170 nM
10 | CCC(N)Cc1nc(OC)c(C2CC2)cc1OC (stereo not drawn) [Compound 28, 1-(5-cyclopropyl-3,6-dimethoxypyridin-2-yl)butan-2-amine] | – | – | – | 71.49% | – | – | – | – | – | – | 161 nM
11 | CCCCCc1cc(OC)c(CCN)cc1OC [Compound 43, reference compound] | 85.6% | 62.2% | 18.9% | 105.2% | – | – | – | – | – | – | –
12 | COc1cc(C2CC2)c(OC)nc1CCN [Compound 26, 2-(5-cyclopropyl-3,6-dimethoxypyridin-2-yl)ethan-1-amine] | – | 5.16% | 2.22% | 81.58% | – | – | – | – | > 10000 nM | > 100000 nM | 27 nM
13 | CCSc1cc(OC)c(CC(N)CC)nc1OC (stereo not drawn) [Compound 24, 1-(5-(ethylthio)-3,6-dimethoxypyridin-2-yl)butan-2-amine] | – | 14.99% | 2.99% | 77.03% | – | – | – | – | > 10000 nM | > 100000 nM | 74.6 nM
14 | CCC(N)Cc1nc(OC)c(C)cc1OC (stereo not drawn) [Compound 2, 1-(3,6-dimethoxy-5-methylpyridin-2-yl)butan-2-amine] | – | – | – | 69.78% | – | – | – | – | – | – | 847 nM
15 | CCCCCc1nc(OC)c(CC(N)CC)cc1OC (stereo not drawn) [Compound 11, 1-(2,5-dimethoxy-6-pentylpyridin-3-yl)butan-2-amine] | – | 6.92% | 197% | 62.2% | – | – | – | – | – | 19200 nM | 356 nM
16 | COc1cc(C)c(OC)nc1CC(C)N (stereo not drawn) [Compound 5, 1-(3,6-dimethoxy-5-methylpyridin-2-yl)propan-2-amine] | – | 68.46% | 0.59% | 104.25% | – | – | – | – | 575 nM | > 100000 nM | 30 nM
17 | COc1cc(C)c(OC)nc1CCN [Compound 8, 2-(3,6-dimethoxy-5-methylpyridin-2-yl)ethan-1-amine] | – | 36.99% | −0.62% | 85.81% | – | – | – | – | 1010 nM | > 100000 nM | 65.8 nM
18 | CCCCCc1nc(OC)c(CC(N)CC)nc1OC (stereo not drawn) [Compound 12, 1-(3,6-dimethoxy-5-pentylpyrazin-2-yl)butan-2-amine] | – | 7.05% | 170% | 37.1% | – | – | – | – | – | 33300 nM | > 3160 nM
19 | CCCc1cc(OC)c(CC(N)CC)nc1OC (stereo not drawn) [Compound 37, 1-(3,6-dimethoxy-5-propylpyridin-2-yl)butan-2-amine] | – | 12.18% | 42.24% | 49.58% | – | – | – | – | > 10000 nM | > 100000 nM | 128 nM
20 | CCSc1cc(OC)c(CCN)nc1OC [Compound 22, 2-(5-(ethylthio)-3,6-dimethoxypyridin-2-yl)ethan-1-amine] | – | 22.75% | −1.51% | 94.73% | – | – | – | – | 215 nM | > 100000 nM | 4.09 nM
21 | CCSc1cc(OC)c(CC(C)N)nc1OC (stereo not drawn) [Compound 23, 1-(5-(ethylthio)-3,6-dimethoxypyridin-2-yl)propan-2-amine] | – | 67.46% | 3.21% | 106.2% | – | – | – | – | 44.5 nM | > 100000 nM | 3.03 nM
